Experimental data as given in patent US10800778B2 (Entasis Therapeutics Limited, priority 2016, dated 2020).
Structures can show the parent of a compound that is named as a salt.

How the values were obtained:
[1] = test system: Klebsiella pneumoniae SHV-18, OXA-2, OKP-6 (ATCC 700603); test: MIC, CLSI broth microdilution, beta-lactam with or without BLI; format: cell-based; settings: for MIC: Klebsiella pneumoniae, ATCC700603, read-out: MIC of beta-lactam alone; for MIC / MIC of beta-lactam alone: no BLI; for MIC / MIC of beta-lactam alone / MIC of cefpodoxime in presence of BLI: K. pneumoniae SHV-18, OXA-2, OKP-6 (ATCC 700603); for MIC of cefpodoxime in presence of BLI: BLI at fixed 4 μg/mL
Experimental: (§1) The minimal inhibitory concentration (MIC) values against each organism and drug combination were determined using the Clinical and Laboratory Standards Institute guidelines (CLSI) broth microdilution methodology (CLSI M07-A10). The recommended quality control (QC) bacterial strains E. coli ATCC 25922, E. coli ATCC 35218 and Klebsiella pneumoniae ATCC 700603 were incorporated into each test according to the CLSI guidelines to assure that there was no variation between test dates (CLSI M100-S25). The MICs of these QC strains were within QC range on all test occasions. Drug containing plates were made using the master plate method. A cefpodoxime solution was prepared to 20× concentration and 2-fold serial dilutions were made in cation adjusted Mueller-Hinton Broth. Equal volumes of 20× examplar compounds at a fixed concentration were added to the master plate. 10 uL was stamped into daughter plates using a Tecan EVO robot. Organism suspensions were adjusted to a 0.5 McFarland standard and further diluted to yield a final inoculum between 3×10^5 and 7×10^5 colony-forming units (CFU)/mL. Bacterial inocula were made in sterile, cation adjusted Mueller-Hinton Broth (Beckton Dickinson). An inoculum volume of 1.1× concentration of 90 uL was added to wells (using a Tecan EVO robot). All inoculated microdilution plates were incubated in ambient air at 35° C. for 18-24 hours.
(§2) Following the procedure from Example 103, MICs were determined for several beta-lactams in presence of a fixed concentration (4 μg/mL) of exemplar compounds (Table 3) against 3 Enterobacteriaceae strains.

E. coli WT (ATCC 25922) = test: as above; format: cell-based; settings: for MIC: Escherichia coli, ATCC25922, no BLI, read-out: MIC of beta-lactam alone; for MIC of beta-lactam alone: no BLI
Experimental: as §1, §2

[2] = test system: C. freundii AmpC, TEM-1, CMY65; test: as above; format: cell-based; settings: for MIC: Citrobacter freundii, read-out: MIC of beta-lactam alone; for MIC / MIC of beta-lactam alone: no BLI
Experimental: as §1, §2

[3] = molecular target: TEM-1 (Class A beta-lactamase) (Escherichia coli, UniProt P62593); test: Inhibition of beta-lactamase enzymes (nitrocefin hydrolysis), TEM-1; format: biochemical; settings: read-out: Class A TEM-1 60 min IC50, nitrocefin 100 μM
Experimental: (§3) A buffer consisting of 0.1 M sodium phosphate (pH 7.0), 10 mM NaHCO3, and 0.005% Triton X-100 was used for all enzymes. The chromogenic substrate nitrocefin (SynGene, Bangalore, India) was used at 100 μM. Enzyme activity was monitored by the 490 nm absorbance increase upon nitrocefin hydrolysis. Assays were performed in clear polystyrene 384-well plates (Greiner Bio-One, Monroe, N.C.). Absorbance was measured for 1 hour at 30-s intervals using a Spectramax absorbance plate reader (Molecular Devices, Sunnyvale, Calif.). Measurement of beta-lactamase inhibition by INHIBITOR employed serial 3-fold dilutions of the inhibitor in assay buffer, ranging from 100 μM to 62.7 pM. A background absorbance progress curve for a control lacking enzyme and inhibitor was subtracted from each progress curve.
(§4) The complete set of progress curves for one enzyme with all inhibitor concentrations was subjected to numerical integration with the program Kintek Global Kinetic Explorer (Kintek Corp, Snowshoe Pa.) to obtain a best-fit to the mechanism shown in Scheme 10.
(§5) where E, S, ES, P, I, and EI are the concentrations of the enzyme, nitrocefin, the enzyme-nitrocefin complex, the nitrocefin hydrolysis product, INHIBITOR, and the enzyme-INHIBITOR complex respectively. […] The values of k+2, k+3, and k−3 were fit. Concentration series offsets of the absorbance measurements were used to correct for slight absorbance baseline differences between wells. The parameter k+3 is equivalent to the second order rate constant kinact/Ki. In some cases, the inhibition was in rapid equilibrium on the experimental time scale, so that only the ratio k−3/k+3=Ki could be determined. Although k−3 represents reversal of inhibitor binding in Scheme 10, hydrolysis of the enzyme-inhibitor complex could not be excluded based on kinetic measurements.
(§6) Best-fit absorbance values from the above procedure at each time point for each compound concentration were exported to Excel.
(§7) where A is the best-fit absorbance without inhibitor and Ainhib is the best-fit absorbance in the presence of the inhibitor.
(§8) where [I] is the inhibitor concentration and n is the Hill coefficient. The Excel add-in XLfit (ID Business Solutions) was used for nonlinear regression.

[4] = molecular target: OXA-48 (Class D beta-lactamase) (Klebsiella pneumoniae, UniProt Q6XEC0); test: Inhibition of beta-lactamase enzymes (nitrocefin hydrolysis), OXA-48; format: biochemical; settings: read-out: Class D OXA-48 60 min IC50, nitrocefin 100 μM
Experimental: as §3, §4, §5, §6, §7, §8

[5] = Stability/conversion of esters in human intestinal S9; format: in vitro ADME
Experimental: (§9) The human intestinal S9 with the absence of PMSF, human liver S9, rat intestinal S9, and rat liver S9 preparations were obtained from Xenotech (Lenexa, Kans.). The 500-μL incubation solution contained 0.8 mg/mL of enzyme (or no enzyme for buffer stability), 10 μM of test compounds in 100 mM of HEPES buffer, pH 7.4. The hydrolysis reactions were conducted in a 1-mL glass insert (Analytical Sales, Pompton Plains, N.J.) in a shake water bath at 37° C. At 0, 2, 5, 10, 15, 30 and 60 min, the reaction was terminated by pipetting 50 μL incubate to a 96 DeepWell plate (Thermo Fisher Scientific, Rochester, N.Y.) containing 100 μL of acetonitrile with 250 ng/mL of Carbutamide (Sigma-Aldrich, St. Louis, Miss.) as the internal standard. The crashed solutions were then vortexed well followed by centrifuge at 4000 rpm for 15 min at 4° C. The extract was transferred to a new 96 DeepWell plate for LC-MS/MS analysis.
(§10) LC-MS/MS analysis was done using an AB Sciex QTrap 6500 mass spectrometer under positive ionization mode, coupled to a Schimadzu Nexera LC system.
(§11) A Waters Atlantis T3 (3 μm, 3.0×50 mm) column was used for separation. The mobile phase consisted 0.1% formic acid in water (A) and 0.1% formic acid in acetonitrile (B) with a flow rate set at 1.2 mL/min. For the prodrug analysis, the Multiple Reaction Monitoring (MRM) specific for each compound was set up so that both prodrug and its hydrolyzed active can be monitored simultaneously.
(§12) Half-lives listed are based on disappearance of starting ester.

[6] = Stability/conversion of esters in rat liver S9; format: in vitro ADME
Experimental: as §9, §10, §11, §12

[7] = Stability/conversion of esters in rat intestinal S9; format: in vitro ADME
Experimental: as §9, §10, §11, §12

[8] = Stability in pH 7.4 buffer (no enzyme); format: physicochemical; settings: read-out: T1/2 pH 7.4 Buffer
Experimental: as §9, §10, §11, §12

[9] = Stability/conversion of esters in human liver S9; format: in vitro ADME
Experimental: as §9, §10, §11, §12

[10] = BLI at fixed 4 μg/ml, K. pneumoniae ATCC 700603
[11] = intestinal S9 (without PMSF), pH 7.4, read-out: T1/2 Human Intestinal S9
[12] = liver S9, pH 7.4, read-out: T1/2 Rat Liver S9
[13] = intestinal S9, pH 7.4, read-out: T1/2 Rat Intestinal S9
[14] = liver S9, pH 7.4, read-out: T1/2 Human Liver S9

Chain of TEM-1 (Class A beta-lactamase) (P62593 whole entry, looked up, species assumed): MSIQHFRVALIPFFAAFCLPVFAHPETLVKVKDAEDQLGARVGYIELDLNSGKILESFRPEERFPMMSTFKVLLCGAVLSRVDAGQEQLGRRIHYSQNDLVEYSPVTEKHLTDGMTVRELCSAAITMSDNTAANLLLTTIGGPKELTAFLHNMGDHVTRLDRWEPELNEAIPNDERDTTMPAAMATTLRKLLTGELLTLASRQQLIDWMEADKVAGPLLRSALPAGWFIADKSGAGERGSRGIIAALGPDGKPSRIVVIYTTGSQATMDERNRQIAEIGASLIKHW
Chain of OXA-48 (Class D beta-lactamase) (Q6XEC0 whole entry, looked up, species assumed): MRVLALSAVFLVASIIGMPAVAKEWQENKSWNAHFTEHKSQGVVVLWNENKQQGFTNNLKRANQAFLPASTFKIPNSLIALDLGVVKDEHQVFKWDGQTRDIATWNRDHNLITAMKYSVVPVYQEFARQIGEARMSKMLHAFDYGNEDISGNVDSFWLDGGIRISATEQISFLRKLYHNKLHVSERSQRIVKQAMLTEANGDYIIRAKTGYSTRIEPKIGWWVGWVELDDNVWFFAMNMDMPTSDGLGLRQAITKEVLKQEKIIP

Structure (SMILES)	MIC of beta-lactam alone [1] [µg/mL]	MIC of beta-lactam alone (E. coli WT (ATCC 25922)) [µg/mL]	MIC of beta-lactam alone [2] [µg/mL]	half-life at 10 μM [5, 11] [min]	half-life at 10 μM [6, 12] [min]	half-life at 10 μM [7, 13] [min]	half-life at 10 μM ([8]; HEPES buffer without enzyme) [min]	half-life at 10 μM [9, 14] [min]	further results
C[C@@H](O)[C@H]1C(=O)N2C(C(=O)O)=C(SC3CN(C4=NCCS4)C3)[C@H](C)[C@H]12 [Tebipenem, tebipenem, reference compound]	–	–	–	–	–	–	–	–	MIC [1]: 0.125 µg/mL; MIC (E. coli WT (ATCC 25922)): ≤ 0.06 µg/mL; MIC [2]: 0.125 µg/mL
CO/N=C(\C(=O)N[C@@H]1C(=O)N2C(C(=O)O)=C(COC(N)=O)CS[C@H]12)c1ccco1 [Cefuroxime, cefuroxime, reference compound]	32	4	>64	–	–	–	–	–	–
CC1(C)[C@H](NC(=O)/C(=N\OCC(=O)O)c2csc(N)n2)C(=O)N1OS(=O)(=O)O [Tigemonam, tigemonam, reference compound]	32	1	4	–	–	–	–	–	–
CC1=C[C@@H](C(N)=O)N2C[C@@H]1N(OCC(=O)O)C2=O [Example 93, 2-(((2S,5R)-2-carbamoyl-4-methyl-7-oxo-1,6-diazabicyclo[3.2.1]oct-3-en-6-yl)oxy)acetic acid lithium salt]	–	–	–	–	–	–	–	–	MIC of cefpodoxime in presence of BLI ([1]; lithium salt): 0.125 µg/mL; MIC of cefixime in presence of BLI [1, 10]: 0.125 µg/mL; MIC of faropenem in presence of BLI [1, 10]: 1 µg/mL; MIC of tebipenem in presence of BLI [1, 10]: ≤0.06 µg/mL; MIC of cefixime in presence of BLI (E. coli WT (ATCC 25922); BLI at fixed 4 μg/ml): ≤0.06 µg/mL; MIC of faropenem in presence of BLI (E. coli WT (ATCC 25922); BLI at fixed 4 μg/ml): ≤0.06 µg/mL; MIC of tebipenem in presence of BLI (E. coli WT (ATCC 25922); BLI at fixed 4 μg/ml): ≤0.06 µg/mL; MIC of cefixime in presence of BLI ([2]; BLI at fixed 4 μg/ml): ≤0.06 µg/mL; MIC of faropenem in presence of BLI ([2]; BLI at fixed 4 μg/ml): ≤0.06 µg/mL; MIC of tebipenem in presence of BLI ([2]; BLI at fixed 4 μg/ml): ≤0.06 µg/mL; IC50 [3]: 150 nM; IC50 [4]: 53 nM
C[C@@H](O)[C@H]1C(=O)N2C(C(=O)O)=C([C@H]3CCCO3)S[C@H]12 [Faropenem, faropenem, reference compound]	–	–	–	–	–	–	–	–	MIC [1]: 8 µg/mL; MIC (E. coli WT (ATCC 25922)): 0.5 µg/mL; MIC [2]: 8 µg/mL
N[C@@H](C(=O)N[C@@H]1C(=O)N2C(C(=O)O)=C(Cl)CC[C@H]12)c1ccccc1 [Loracarbef, loracarbef, reference compound]	32	2	>64	–	–	–	–	–	–
CC1=C[C@@H](C(N)=O)N2C[C@@H]1N(OCC(=O)OC(C)C)C2=O [Example 96, isopropyl 2-(((2S,5R)-2-carbamoyl-4-methyl-7-oxo-1,6-diazabicyclo[3.2.1]oct-3-en-6-yl)oxy)acetate]	–	–	–	1480	10.3	211	> 100	57	–
CC1=C[C@@H]2CN(C(=O)N2O[C@H](F)C(=O)Oc2ccc3c(c2)CCC3)[C@@H]1C(N)=O [Example 65, indan-5-yl (2R)-2-[[(2S,5R)-2-carbamoyl-3-methyl-7-oxo-1,6-diazabicyclo[3.2.1]oct-3-en-6-yl]oxy]-2-fluoro-acetate]	–	–	–	< 1	< 1	1.3	1.7	< 1	–
CCOC(=O)[C@H](F)ON1C(=O)N2C[C@H]1C=C(C)[C@H]2C(=O)NOC[C@@H]1CCCN1 [Example 60, ethyl (2S)-2-fluoro-2-(((2S,5R)-3-methyl-7-oxo-2-((((S)-pyrrolidin-2-yl)methoxy)carbamoyl)-1,6-diazabicyclo[3.2.1]oct-3-en-6-yl)oxy)acetate TFA salt]	–	–	–	22	10	21	29	9.9	–
CC[C@H](C)OC(=O)[C@@H](F)ON1C(=O)N2C[C@H]1C=C(C)[C@H]2C(N)=O [Example 20, (2R)-(S)-sec-butyl 2-(((2S,5R)-2-carbamoyl-3-methyl-7-oxo-1,6-diazabicyclo[3.2.1]oct-3-en-6-yl)oxy)-2-fluoroacetate]	–	–	–	–	–	–	–	–	half-life at 10 μM ([5]; s9, pH 7.4, read-out: T1/2 Human Intestinal S9): 40 min; half-life at 10 μM ([6]; s9, pH 7.4, read-out: T1/2 Rat Liver S9): 6.1 min; half-life at 10 μM ([7]; s9, pH 7.4, read-out: T1/2 Rat Intestinal S9): 54 min; half-life at 10 μM ([8]; buffer): 39 min; half-life at 10 μM ([9]; s9, pH 7.4, read-out: T1/2 Human Liver S9): 5.1 min
CC1=C[C@@H]2CN(C(=O)N2O[C@@H](F)C(=O)O)[C@@H]1C(=O)NCCNS(N)(=O)=O [Example 75, (2S)-2-fluoro-2-[[(2S,5R)-3-methyl-7-oxo-2-[2-(sulfamoylamino)ethyl-carbamoyl]-1,6-diazabicyclo[3.2.1]oct-3-en-6-yl]oxy]acetic acid lithium salt]	–	–	–	–	–	–	–	–	MIC of cefpodoxime in presence of BLI [1]: 0.125 µg/mL; IC50 [3]: 83 nM; IC50 [4]: 420 nM
CC1=C[C@@H]2CN(C(=O)N2O[C@H](F)C(=O)OCC(C)C)[C@@H]1C(N)=O [Example 49, isobutyl (2R)-2-[[(2S,5R)-2-carbamoyl-3-methyl-7-oxo-1,6-diazabicyclo[3.2.1]oct-3-en-6-yl]oxy]-2-fluoro-acetate]	–	–	–	32	1.8	26	68	6.9	–
C=CC1=C(C(=O)O)N2C(=O)[C@@H](NC(=O)/C(=N\OCC(=O)O)c3csc(N)n3)[C@H]2SC1 [Cefixime, cefixime, reference compound]	8	0.5	>64	–	–	–	–	–	–
